From patent US20060120962A1, “Cardiac safe, rapid medication delivery” (priority 2004, published 2006)
“And” between values parts separate entries of the source, which are not always exact repeats. Identical values can stand only once. Like-named read-outs stand apart in the source and are kept apart here.

Experiments:
[1] = Pharmacokinetics of aerosolized alprazolam in dog (left ventricular and venous plasma) vs IV bolus; format: in vivo; conditions: for AUC(0-t) / bioavailability / Cmax / Tmax / AUC / half-life: female, mongrel, 0.7 mg; for AUC(0-t): venous plasma; for Tmax: median
Method: (§1) This study consisted of five young adult, female, mongrel dogs. Four animals per session were treated with the test article, alprazolam, in two separate surgical/dosing sessions. In Session 1 the test article was administered intravenously (IV) as a 5-second bolus. […] The animals were dosed at a level of 0.7 mg of alprazolam in both dosing sessions.
Four animals per session were treated with the test article, alprazolam, in two separate surgical/dosing sessions. The animals were dosed at a level of 0.7 mg of alprazolam in both dosing sessions.
Anesthesia was performed substantially as described in Example 1.
Whole blood samples were centrifuged. […] All plasma samples were stored until analyzed. […] Plasma samples were mixed with spiking solutions of alprazolam, α-hydroxyalprazolam, 4-hydroxyalprazolam and an internal standard (alprazolam-d5). […] Drug or metabolite concentrations were calculated by comparing (drug or metabolite)/internal standard ratios to standard curves prepared in dog plasma.
Individual plasma concentration-time data from four animals, two sampling sites, and two dose routes were analyzed by noncompartmental pharmacokinetic methods via WinNonlin using nominal time points. Areas were calculated using the linear trapezoidal rule.

[2] = Clinical observations and body weights after alprazolam administration in dogs; format: in vivo; conditions: dog
Method: as §1

[3] = humans; reported; cited from earlier work
[4] = Clinical observations and body weights after prochlorperazine administration in dogs; format: in vivo; conditions: dog
in vivo = conditions: female, mongrel, dog, 7 mg; for AUC(0-t): AUC0-10 min; for bioavailability: F, based on venous AUCinf
Method: The objective of this study was to determine the concentration of prochlorperazine in dog plasma processed from whole blood taken from both the left ventricle and venous circulation immediately following administration of prochlorperazine aerosol to the animal by way of the thermal aerosol generation process described herein, during a single deep inhalation.
This study consisted of four young adult, female, mongrel dogs. The animals were treated with the test article, prochlorperazine (PCZ), in three separate surgical/dosing sessions. In sessions 1 and 3, the test article was administered intravenously (IV), either via a 120-second infusion (Session 1) or as a five-second bolus (Session 3). In session 2, the test article was administered using a thermal aerosol generation process, during a single deep inhalation. Following treatment in each surgical/dosing session, blood samples were collected from the left ventricle and from a peripheral vein for bioanalysis. Left ventricular and venous plasma samples were obtained prior to drug administration. In addition, left ventricular plasma samples were obtained every five seconds during the first 30 seconds following drug administration, as well as frequently thereafter, with the last left ventricular sample collected 10 minutes following drug administration. Venous plasma samples were obtained from 15 seconds to 24 hours following drug administration. Clinical observations and body weights were recorded for all animals at specified time points.
The animals were treated in three separate surgical/dosing sessions. For each session, the animals were appropriately anesthetized prior to administration of the test article. Each surgical/dosing session was separated by a washout period of approximately 48 hours from the time of the previous treatment administration.
Session 1: While the animals were anesthetized, the test article (1.4 mL of 5 mg/mL prochloperazine edisylate injection) was administered as a 120-second intravenous (IV) manual infusion via a saphenous vein. Blood sampling commenced at the time of initiation of infusion (t=0).
Session 2: While the animals were anesthetized, an aerosol generation and administration system was connected in-line to an endotracheal tube to allow for delivery of the aerosol test article (prochlorperazine coated on a chemical, single dose heat package). The aerosol resulting from actuation of the prochlorperazine by the aerosol generation and administration system was administered during a single deep inhalation. Blood sampling commenced at the time of initiation of the deep inhalation (t=0).
Session 3: While the animals were anesthetized, the test article (1.4 mL of 5 mg/mL prochloperazine edisylate injection) was administered as a five-second IV bolus via a saphenous vein. Blood sampling commenced at the time of initiation of the bolus (t=0).
Each animal was premedicated with atropine sulfate (0.02 mg/kg, intramuscularly) and acepromazine (0.2 mg/kg, IM, to a maximum dose of 3 mg) prior to induction of anesthesia. At least 10 minutes later, the animal was anesthetized with Propofol(4-8 mg/kg, intravenously). The animal was then intubated and maintained in anesthesia with isoflurane inhalant anesthetic, delivered through a volume-regulated ventilator. An intravenous catheter was placed in a peripheral vessel for administration of lactated Ringer's solution during the procedure at a rate of approximately 5 mL/kg/hr.
A midline incision was made in the neck and one of the carotid arteries was exposed. The artery was mobilized a distance of about 5 cm and two Vessel-Loops® were placed around it, proximally and distally.

[5] = inhaled or intranasal, dog left ventricular plasma, aerosol inhalation
[6] = inhaled or intranasal, dog venous plasma, aerosol inhalation
[7] = dog left ventricular plasma, IV bolus
[8] = dog venous plasma, 7 mg, 2-min IV infusion
[9] = dog venous plasma, 7 mg, IV bolus
[10] = dog venous plasma, 7 mg, aerosol inhalation
[11] = left ventricular plasma, inhaled or intranasal, dog left ventricular plasma, aerosol inhalation
[12] = left ventricular plasma, iv, dog left ventricular plasma, 2-min IV infusion
[13] = left ventricular plasma, iv, dog left ventricular plasma, IV bolus
[14] = venous plasma, iv, dog venous plasma, 2-min IV infusion
[15] = venous plasma, iv, dog venous plasma, IV bolus

Q: For Cc1nnc2n1-c1ccc(Cl)cc1C(c1ccccc1)=NC2 [alprazolam], which “last time concentrations measurable (last sampling time)” value ([1]; dog left ventricle plasma, all cases) is on record?
A: The value was 10 min.

Q: What about the “median time through which concentrations were measurable” value ([1]; dog venous plasma, IV dosing) of the same compound?
A: Its value is 240 min.

Q: And the “median time through which concentrations were measurable” value ([1]; dog venous plasma, inhalation dosing)?
A: The value was 360 min.

Q: And the “mean Cmax for left ventricle plasma relative to venous plasma” value ([1]; dog, both routes of administration)?
A: The value was about 7 fold.

Q: What about the “mean Cmax after inhalation as percentage of values after intravenous dosing” value ([1]; dog, left ventricle and venous plasma) of the same compound?
A: Its value is “approximately 70%”.

Q: What about the “bioavailability based upon mean AUC (n=4) by each route” value ([1]; dog, left ventricle sampling) of the same compound?
A: Its value is 81.5%.

Q: What about the “bioavailability based upon mean AUC (n=4) by each route” value ([1]; dog, systemic plasma) of the same compound?
A: Its value is 94.9%.

Q: And the AUC(0-t) ([1]; dog, inhaled or intranasal, dog venous plasma, aerosol inhalation, read-out: AUC0-240 (converted))?
A: The AUC(0-t) was 38.3 ng·h/mL.

Q: What about the AUC(0-t) ([1]; dog, inhaled or intranasal, dog venous plasma, aerosol inhalation, read-out: AUClast (converted)) of the same compound?
A: Its AUC(0-t) is 43.3 ng·h/mL.

Q: And the AUC(0-t) ([1]; dog, iv, dog venous plasma, IV bolus, read-out: AUC0-240 (converted))?
A: Its AUC(0-t) is 42.3 ng·h/mL.

Q: And the AUC(0-t) ([1]; dog, iv, dog venous plasma, IV bolus, read-out: AUClast (converted))?
A: The AUC(0-t) was 45.3 ng·h/mL.

Q: What about the bioavailability ([1]; inhaled or intranasal, dog, based on AUC for venous plasma, n=3, read-out: F, mean bioavailability for inhalation administration) of the same compound?
A: Its bioavailability is 95.5%.

Q: What about the Cmax [1, 5] of the same compound?
A: The Cmax was 676 ± 99.5 ng/mL.

Q: What about the Tmax [1, 5] of the same compound?
A: The Tmax was 0.25 min.

Q: What about the AUC [1, 6] of the same compound?
A: The AUC was 49.7 ng·h/mL.

Q: What about the Cmax ([1]; inhaled or intranasal, dog venous plasma, aerosol inhalation, mean ± SD, n=4) of the same compound?
A: Its Cmax is 102 ± 57.2 ng/mL.

Q: What about the Tmax [1, 6] of the same compound?
A: The Tmax was 0.5 min.

Q: And the half-life ([1]; inhaled or intranasal, dog venous plasma, aerosol inhalation, read-out: Half-Life)?
A: Its half-life is 115 ± 12.9 min.

Q: What about the half-life ([1]; intravenous, inhaled, dog venous plasma, both routes, read-out: mean terminal elimination half-life) of the same compound?
A: Its half-life is about 110 min.

Q: And the bioavailability ([1]; left ventricular plasma, inhaled or intranasal, dog, based on AUC for left ventricle plasma, three animals, read-out: mean bioavailability for inhalation administration)?
A: Its bioavailability is 85%.

Q: And the half-life ([1]; left ventricular plasma, intravenous, inhaled, dog left ventricle plasma, both routes, read-out: mean terminal elimination half-life)?
A: The half-life was about 4 min.

Q: What about the Cmax [1, 7] of the same compound?
A: Its Cmax is 967 ± 303 ng/mL.

Q: And the Tmax [1, 7]?
A: Its Tmax is 0.42 min.

Q: And the Cmax ([1]; dog venous plasma, 5-second IV bolus, mean ± SD, n=4)?
A: Its Cmax is 147 ± 93.5 ng/mL.

Q: What about the AUC ([1]; dog venous plasma, IV bolus) of the same compound?
A: The AUC was 52.3 ng·h/mL.

Q: What about the Tmax ([1]; dog venous plasma, IV bolus) of the same compound?
A: The Tmax was 0.75 min.

Q: And the half-life ([1]; dog venous plasma, IV bolus, read-out: Half-Life)?
A: The half-life was 106 ± 22 min.

Q: And the “body weight change between treatment sessions” value [2]?
A: Its value is “no remarkable change”.

Q: What about the “adverse effects by clinical observations” value ([2]; 0.7 mg IV bolus and aerosol sessions) of the same compound?
A: Its value is “no adverse effects”.

Q: What does the source list for CN1CCN(CCCN2c3ccccc3Sc3ccc(Cl)cc32)CC1 [PCZ, prochlorperazine]?
A: oral bioavailability [3]: 12.5%; adverse effects by clinical observations ([4]; 7 mg IV infusion, aerosol, IV bolus sessions): no adverse effects; body weights between treatment sessions ([4]; all animals): maintained; Cmax (dog left ventricular plasma, 7 mg, 2-min IV infusion): 1365.3 ± 396.2 ng/mL; Cmax (dog left ventricular plasma, 7 mg, IV bolus): 3481.8 ± 787.2 ng/mL; Cmax (dog left ventricular plasma, 7 mg, aerosol inhalation): 3261.5 ± 974.8 ng/mL; Cmax (dog left ventricular plasma, 7 mg, aerosol inhalation, listed as prochlorperazine): 3261 ng/mL; time of maximum left ventricular concentration [7]: 30 s; time of maximum left ventricular concentration (dog left ventricular plasma, aerosol inhalation): 20 s; AUC0-10 min [8]: 32.2 ± 21.1 ng·h/mL; AUCinf [8]: 229.9 ± 35.7 ng·h/mL; Tlast [8]: 8.0 ± 0.0 h; Cmax (dog venous plasma, 7 mg, 2-min IV infusion, mean ± SD): 441.8 ± 269.9 ng/mL; AUC0-10 min [9]: 63.4 ± 15.7 ng·h/mL; AUCinf [9]: 305.1 ± 59.3 ng·h/mL; Tlast [9]: 8.0 ± 0.0 h; AUC0-10 min [10]: 56.5 ± 10.6 ng·h/mL; AUCinf [10]: 250.4 ± 58.2 ng·h/mL; Tlast [10]: 6.0 ± 2.3 h; Vd [10]: 2.6 ± 1.1 L/kg; Cmax (dog venous plasma, 7 mg, thermal aerosol single deep inhalation, mean ± SD): 886.5 ± 268.3 ng/mL; mean maximum concentration, left ventricular plasma relative to venous plasma (dog, 2-minute IV infusion): approximately 3 fold; venous plasma concentration at time points after 8 hr (undetectable levels) (dog, 2-minute IV infusion): < 2 ng/mL; peak concentration in left ventricular plasma relative to 2-minute IV infusion (dog, aerosol and IV bolus treatments): approximately 2.5 fold; F, aerosol bioavailability to IV infusion (dog, based on venous AUCinf, 7 mg aerosol vs 2-min IV infusion): 108.7±19% and 108.9 ± 19.2%; F, aerosol bioavailability to IV bolus (dog, based on venous AUCinf, 7 mg aerosol vs IV bolus): 82.1 ± 13.1%; (ventricular) spike index for inhalation (dog, left ventricular Cmax aerosol divided by Cmax 2-min IV infusion): 2.4; Tmax (in vivo; left ventricular and venous plasma, iv, dog left ventricular and venous plasma, 2-minute IV infusion): 1.25 to 3 min; AUC(0-t) (in vivo; [11]): 89.1 ± 13.7 ng·h/mL; Cmax (in vivo; [11]): 3260 ± 975 ng/mL; Tmax (in vivo; [11]): 0.33 min; AUC(0-t) (in vivo; [12]): 88.5 ± 25.7 ng·h/mL; AUC(0-t) (in vivo; [13]): 98.3 ± 15 ng·h/mL; Cmax (in vivo; [12]): 1360 ± 396 ng/mL; Cmax (in vivo; [13]): 3480 ± 767 ng/mL; Tmax (in vivo; [12]): 1.9 min; Tmax (in vivo; [13]): 0.5 min; Cmax (in vivo; venous plasma, inhaled or intranasal, dog venous plasma, thermal aerosol single deep inhalation, mean ± SD): 886 ± 268 ng/mL; half-life (in vivo; venous plasma, inhaled or intranasal, Half-Life, dog venous plasma, aerosol inhalation): 76.2 ± 17.4 min; Tmax (in vivo; venous plasma, inhaled or intranasal, dog venous plasma, aerosol inhalation): 1 min; bioavailability (in vivo; venous plasma, inhaled, aerosol bioavailability to IV bolus, 7 mg aerosol vs IV bolus): 82%; bioavailability (in vivo; venous plasma, inhaled, aerosol bioavailability to IV infusion, 7 mg aerosol vs 2-min IV infusion): 109%; clearance (in vivo; venous plasma, intravenous, inhaled, mean clearances, dog venous, span over the three groups): 18.9 to 24.8 mL/min/kg; half-life (in vivo; venous plasma, intravenous, inhaled, mean half-lives, dog venous, span over the three groups): 76.2 to 105 min; clearance (in vivo; venous plasma, iv, CL, dog venous plasma, 2-min IV infusion): 24.8 mL/min/kg; clearance (in vivo; venous plasma, iv, CL, dog venous plasma, IV bolus): 18.9 ± 3.6 mL/min/kg; Cmax (in vivo; venous plasma, iv, dog venous plasma, 2-min IV infusion, mean ± SD): 442 ± 270 ng/mL; Cmax (in vivo; venous plasma, iv, dog venous plasma, 5-second IV bolus, mean ± SD): 1300 ± 1260 ng/mL; half-life (in vivo; venous plasma, iv, Half-Life, dog venous plasma, 2-min IV infusion): 105 ± 9.6 min; half-life (in vivo; venous plasma, iv, Half-Life, dog venous plasma, IV bolus): 82.2 ± 6 min; Tmax (in vivo; [14]): 2.5 min; Tmax (in vivo; [15]): 1.1 min; Vd (in vivo; [14]): 3.8 L/kg; Vd (in vivo; [15]): 2.3 ± 0.6 L/kg
